According to patent US20240261443A1, “COMPOUNDS AND COMPOSITIONS USEFUL AS RADIOTRACERS FOR IMAGING OF REACTIVE OXIDATIVE SPECIES” (Wake Forest University Health Sciences, priority 2019, published 2024):

Columns and labels:
rSCC-61 tumors = experiment: Post-PET biodistribution, rSCC-61 tumor-bearing mice; assay type: in vivo
Description: Subsequently, post-PET biodistribution was performed in the same SCC-61 or rSCC-61 tumor-bearing mice injected with [^18F]KS1 (FIG. 16). […] High kidney and liver uptake were common with [^18F]radiotracer's distribution at 30 min post-injection.

PC3 tumors = experiment: Standard biodistribution in PC3 tumor-bearing mice; assay type: in vivo
Description: Athymic nude mice (Taconic Farms) were housed in a pathogen-free facility of the Animal Research Program at Wake Forest School of Medicine under a 12:12-h light/dark cycle and fed ad libitum. All animal experiments were conducted under IACUC approved protocols in compliance with the guidelines for the care and use of research animals established by Wake Forest Medical School Animal Studies Committee. PC3 cells (1×10^5 cells suspended in 10 μL matrigel) were implanted in the left flank of nude mice (25-30 g) as described previously. Mice bearing subcutaneous human PCa PC3 tumors were separated into two groups for baseline and blockade studies (n=3/group) and underwent microPET imaging under ˜1% isoflurane-oxygen anesthesia (Reuter et al., Oxidative stress, inflammation, and cancer: How are they linked? Free radical biology & medicine. 2010; 49:1603-16. doi:10.1016/j.freeradbiomed; Sosa et al., Oxidative stress and cancer: An overview. Ageing Research Reviews. 2013; 12:376-90; Singh et al., Silibinin suppresses in vivo growth of human prostate carcinoma PC-3 tumor xenograft. Carcinogenesis. 2007; 28:2567-74). Mice were intravenously injected with ˜100±10 μCi of [^18F]KS1 and 45 min later were scanned for 20 min using a TriFoil microPET scanner. KS1 (15 mg/kg) was used as a blocking agent and was injected 45 min before the radiotracer injection. Standard biodistribution studies were conducted in mice bearing PCa tumors to confirm in vivo binding of [^18F]KS1. Mice were intravenously injected with [^18F]KS1 (˜100 μCi), and euthanized after 30 min and 60 min of tracer injections (3 mice/time point). Samples of tumor, blood, brain, heart, lung, liver, spleen, pancreas, kidney, muscle and bone were harvested, weighed, and gamma counted with a standard dilution of the injectate (Chu et al., Development of a PET Radiotracer for Noninvasive Imaging of the Reactive Oxygen Species, Superoxide, in vivo. Organic & biomolecular chemistry. 2014; 12:4421-31; Sai et al., Radiolabeling and initial biological evaluation of [(18)F]KBM-1 for imaging RAR-α receptors in neuroblastoma. Bioorganic & medicinal chemistry letters. 2017; 27:1425-7; Kumar et al., Radiosynthesis and in Vivo Evaluation of [11C]MPC-6827, the First Brain Penetrant Microtubule PET Ligand. Journal of Medicinal Chemistry. 2018; 61:2118-23). The percentage of the injected dose per gram of tissue (% ID/g) was calculated.

[1] = tested on: SCC-61 and rSCC-61 tumors; experiment: microPET/CT imaging in SCC-61 and rSCC-61 tumor-bearing mice; assay type: in vivo
Description: After evaluating the complete in vitro ROS uptake and stability profile of [^18F]KS1, we performed in vivo microPET/CT scans in tumor-bearing mice. To test our hypothesis of selective binding of [^18F]KS1 to image ROS in tumor tissue, we reported the baseline and blocking PET imaging data in a murine model of PCa (Solingapuram Sai et al., Initial biological evaluations of 18F-KS1, a novel ascorbate derivative to image oxidative stress in cancer. EJNMMI Research 2019, 9 (1), 43). Further, to test the differential ROS uptake of [^18F]KS1, microPET/CT imaging experiments were performed in both SCC-61 and rSCC-61 tumor-bearing mice (n=5, 25±2.5 g).

SCC-61 cell line (HNSCC) = experiment: MTT cytotoxicity IC50 assay, SCC-61; assay type: cell-based, human; details: Homo sapiens, SCC-61, MTT
Description: (§1) The cells were seeded at density 5×10^3 cells/well. After 24 h pre-incubation period, cells were treated with 0.01 mM to 2.0 mM of freshly prepared KS1 and KS2 along with ascorbate (n=3) for 48 h. 0.2% of DMSO served as vehicle control. After 48 h, the solutions were removed from all plates and MTT assays performed following the published protocols. IC50 values are presented as mean±SD from at least three independent experiments.
(§2) There is growing evidence for a therapeutic role of ascorbate against several cancers (Creagan et al., Failure of High-Dose Vitamin C (Ascorbic Acid) Therapy to Benefit Patients with Advanced Cancer. New England Journal of Medicine 1979, 301 (13), 687-690; Chen et al., Pharmacologic ascorbic acid concentrations selectively kill cancer cells: action as a pro-drug to deliver hydrogen peroxide to tissues. Proceedings of the National Academy of Sciences of the United States of America 2005, 102 (38), 13604-13609; Prasad et al., High Doses of Multiple Antioxidant Vitamins: Essential Ingredients in Improving the Efficacy of Standard Cancer Therapy. Journal of the American College of Nutrition 1999, 18 (1), 13-25). Pharmacologic doses of ascorbate (oral and/or intravenous) could increase the effectiveness of cancer chemotherapy in many solid cancer therapies (López-Lizaro, Dual role of hydrogen peroxide in cancer: Possible relevance to cancer chemoprevention and therapy. Cancer Letters 2007, 252 (1), 1-8; Li et al., New Developments and Novel Therapeutic Perspectives for Vitamin C. The Journal of Nutrition 2007, 137 (10), 2171-2184; Klimant et al., Intravenous vitamin C in the supportive care of cancer patients: a review and rational approach. Current Oncology 2018, 25 (2), 139-148. The primary objective of this experiment was to determine the cytotoxic effects of KS1 at pharmacological concentrations. Cancer cell lines were selected based on their high ROS implications. […] These cell lines have been studied extensively with ascorbic acid treatments (Schoenfeld et al., O(2)(·−) and H(2)O(2)-Mediated Disruption of Fe Metabolism Causes the Differential Susceptibility of NSCLC and GBM Cancer Cells to Pharmacological Ascorbate. Cancer Cell 2017, 31 (4), 487-500.e8; Chen et al., Modulators of Redox Metabolism in Head and Neck Cancer. Antioxidants & Redox Signaling 2017, 29 (16), 1660-1690; Khandrika et al., Oxidative stress in prostate cancer. Cancer Lett 2009, 282 (2), 125-136.

PC3 cell line = experiment: MTT cytotoxicity IC50 assay, PC3; assay type: cell-based, human; details: Homo sapiens
Description: as §1, §2

normal organs = experiment: Toxicity observation in blocking studies, KS1 15 mg/kg; assay type: in vivo; details: 15 mg/kg injected
Description: Athymic nude mice (Taconic Farms) were housed in a pathogen-free facility of the Animal Research Program at Wake Forest School of Medicine under a 12:12-h light/dark cycle and fed ad libitum. All animal experiments were conducted under IACUC approved protocols in compliance with the guidelines for the care and use of research animals established by Wake Forest Medical School Animal Studies Committee. PC3 cells (1×10^5 cells suspended in 10 μL matrigel) were implanted in the left flank of nude mice (25-30 g) as described previously. […] Samples of tumor, blood, brain, heart, lung, liver, spleen, pancreas, kidney, muscle and bone were harvested, weighed, and gamma counted with a standard dilution of the injectate (Chu et al., Development of a PET Radiotracer for Noninvasive Imaging of the Reactive Oxygen Species, Superoxide, in vivo. Organic & biomolecular chemistry. 2014; 12:4421-31; Sai et al., Radiolabeling and initial biological evaluation of [(18)F]KBM-1 for imaging RAR-α receptors in neuroblastoma. Bioorganic & medicinal chemistry letters. 2017; 27:1425-7; Kumar et al., Radiosynthesis and in Vivo Evaluation of [11C]MPC-6827, the First Brain Penetrant Microtubule PET Ligand. […] The percentage of the injected dose per gram of tissue (% ID/g) was calculated.

Row | SMILES | target (tumor) to non-target (muscle) ratio (rSCC-61 tumors) | increased tumor uptake from 30 min to 60 min (PC3 tumors; 30 to 60 min post injection) [fold] | tumor: muscle (target: non-target) ratio (PC3 tumors; 30 min) | bone uptake (PC3 tumors; 30 min post injection) [% ID/g] | tumor uptake (PC3 tumors; 30 min post injection) [% ID/g] | tumor: muscle (target: non-target) ratio (PC3 tumors; 60 min) | bone uptake (PC3 tumors; 60 min post injection) [% ID/g] | tumor uptake (PC3 tumors; 60 min post injection) [% ID/g] | increase in the tumor: muscle ratio (PC3 tumors; from 30 min to 60 min) [%] | tumor uptake in SCC-61 tumors versus rSCC-61 tumors ([1]; ROI analysis on PET scans) [fold] | residual uptake in other organs, including bladder and kidney ([1]; post 1-h radiotracer injection) | IC50 (SCC-61 cell line (HNSCC); Example 7, 48 h) [µM] | IC50 (SCC-61 cell line (HNSCC); Example 13) [µM] | IC50 (PC3 cell line; PC-3, Example 7, 48 h) [µM] | IC50 (PC3 cell line; PC-3, Example 13) [µM] | toxicity in normal organs (normal organs)
1 | O=C1O/C(=C/CCl)C(O)=C1OCc1ccc(OCC[18F])cc1 [[^18F]KS1] | 4.11 | ~1.7 | 4.31 | 1.741±0.71 | 4.23±0.531 | 8.84 | 1.381±0.561 | 6.81±0.33 | > 50 | ~1.2 | no residual uptake | – | – | – | – | –
2 | O=C1O/C(=C/CCl)C(O)=C1OCc1ccc(OCCF)cc1 [KS1, (E)-5-(2-chloroethylidene)-3-(4-(2-fluoroethoxy)benzyloxy)-4-hydroxyfuran-2(5H)-one] | – | – | – | – | – | – | – | – | – | – | – | 288 | 718 | 311 | 1010 | did not observe any toxicity
